This is an account of results in patent US11643396B2, “BRD4-kinase inhibitors as cancer therapeutics” (H. LEE MOFFITT CANCER CENTER AND RESEARCH INSTITUTE, INC., priority 2015, dated 2023).

Values joined by “and” are separate entries in the source; they are usually repeats but may differ in a detail not shown here. Equal values may be shown once. Read-outs that look alike come from different tables or passages of the source.

One series has as its target BRD4 (Homo sapiens (Human), UniProt O60885). The series can be described thus: Differential Scanning Fluorimetry (DSF), stability of BRD4 upon ligand binding. Conditions: for DSF ΔTm / IC50: Table 1; for IC50: estimated from DSF; for DSF: BRD4 ΔTm: 100 μM protein, 4 μM compound and 2% DMSO, Table 4.
Another series deals with HEK293. The series is described as follows: Cellular IC50, HEK293. In kind it is cell-based. Conditions: Homo sapiens.
Another series has as its target BRD4-1 (Homo sapiens (Human), UniProt O60885). The series is described as follows: Alpha Screen (Reaction Biology). In kind it is binding. The following applies: Reaction Biology data.
The target of the next series is BRDT-1 (Homo sapiens (Human), UniProt Q58F21). The series can be described thus: Alpha Screen (Reaction Biology). Conditions: Reaction Biology data. The series is classed as binding.
The test system of a further series is UKE-1. The series can be described thus: Cellular IC50, UKE-1. Conditions: UKE1. The series is classed as cell-based.
Series [1] deals with MV4-11 AML cells. The series is described as follows: Cellular IC50, MV-4-11. The series is classed as cell-based. Conditions: Homo sapiens. As to the method:
Cellular activity of promising compounds is assessed using MM.1S and MV4-11 AML cells using c-Myc levels as biomarker (6-12 hr treatment) and antiproliferative activity (48-72 hr treatment) as described (Ciceri et al., Dual kinase-bromodomain inhibitors for rationally designed polypharmacology. Nat Chem Biol 2014).

In a further series the target is BRD4-2 (Homo sapiens (Human), UniProt O60885). The series can be described thus: Alpha Screen (Reaction Biology). The series is classed as binding. The following applies: Reaction Biology data; value in parentheses.
Another series relates to MM.1S cells. The series is described as follows: Cellular IC50 (cell survival, MTT), MM.1S. In kind it is cell-based. The source says:
Increased anti-proliferative effects are correlated with an early, strong reduction of both pSTAT2 and c-Myc levels. The inhibitors highlighted are the most promising equipotent dual BET-JAK2 inhibitors of this series.

In a further series the test system is c-Myc. The following applies: literature; cited from earlier work.
A short description of another series: Solubility in PBS buffer. In kind it is physicochemical.
The subject of series [2] is MV4-11 AML cells. Conditions: literature; read-out: IC50, inhibition of proliferation of MV4-11 AML cells; cited from earlier work.
The next series has as its target JAK2 (Homo sapiens (Human), UniProt O60674). The series can be described thus: HotSpot Kinase assay (Reaction Biology). The series is classed as biochemical. The following applies: Reaction Biology data.
Another series deals with Saos-2. The series can be described thus: Cellular IC50, Saos-2. The series is classed as cell-based. Conditions: Homo sapiens.
The mark [3] stands for this setting: Homo sapiens, MM1.S, read-out: Cellular IC50 MM.1S.

Sequence of JAK2 (O60674 whole entry): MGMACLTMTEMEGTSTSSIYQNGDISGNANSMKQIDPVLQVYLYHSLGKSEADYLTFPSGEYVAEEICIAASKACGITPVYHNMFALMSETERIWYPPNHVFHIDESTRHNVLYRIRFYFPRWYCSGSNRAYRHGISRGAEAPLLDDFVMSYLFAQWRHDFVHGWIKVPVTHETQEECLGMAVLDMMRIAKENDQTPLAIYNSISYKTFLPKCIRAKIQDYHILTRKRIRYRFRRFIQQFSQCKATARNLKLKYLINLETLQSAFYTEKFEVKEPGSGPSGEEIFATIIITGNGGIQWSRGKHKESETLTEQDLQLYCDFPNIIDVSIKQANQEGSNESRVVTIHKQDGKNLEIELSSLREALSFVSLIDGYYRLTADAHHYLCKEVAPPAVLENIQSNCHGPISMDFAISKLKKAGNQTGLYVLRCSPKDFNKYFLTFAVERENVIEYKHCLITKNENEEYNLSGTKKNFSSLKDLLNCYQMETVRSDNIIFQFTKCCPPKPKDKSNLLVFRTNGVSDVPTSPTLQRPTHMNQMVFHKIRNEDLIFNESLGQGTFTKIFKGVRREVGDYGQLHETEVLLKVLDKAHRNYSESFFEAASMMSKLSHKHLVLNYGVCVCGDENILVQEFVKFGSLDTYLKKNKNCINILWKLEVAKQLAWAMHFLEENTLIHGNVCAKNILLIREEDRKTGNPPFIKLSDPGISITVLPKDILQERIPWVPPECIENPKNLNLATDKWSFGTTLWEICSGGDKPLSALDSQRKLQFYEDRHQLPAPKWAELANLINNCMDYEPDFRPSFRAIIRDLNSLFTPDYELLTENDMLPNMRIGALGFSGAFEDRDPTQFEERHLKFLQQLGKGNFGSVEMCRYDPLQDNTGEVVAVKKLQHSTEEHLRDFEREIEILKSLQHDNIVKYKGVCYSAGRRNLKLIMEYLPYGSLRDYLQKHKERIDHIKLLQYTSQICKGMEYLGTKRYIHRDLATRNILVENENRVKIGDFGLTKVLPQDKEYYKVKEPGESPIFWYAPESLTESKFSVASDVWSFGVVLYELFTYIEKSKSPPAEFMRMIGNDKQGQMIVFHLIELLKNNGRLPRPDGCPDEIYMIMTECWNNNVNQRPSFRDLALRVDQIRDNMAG

As for `Cc1nc(Nc2ccc(N3CCN(C)CC3)cc2)nc(Nc2cccc(S(=O)(=O)NC(C)C)c2)c1C`, on BRD4, the “DSF ΔTm” value worked out at 5.3 ± 0.064 °C and the IC50 is 370 nM. In the series on HEK293, this compound showed an IC50 of 120000 nM.

As to `CCOC(=O)c1cnc(Nc2ccc(N3CCN(C)CC3)cc2)nc1Nc1cccc(S(=O)(=O)NC(C)(C)C)c1`, the IC50 at BRD4 was > 20000 nM.

For `CCCN(C)c1ccc(Nc2nc3c(c(Nc4cccc(S(N)(=O)=O)c4)n2)COC3)cc1`, at BRD4, the “DSF ΔTm” value was 2.9 ± 0.084 °C and the IC50 is 2300 nM.

With `Cc1cnc(Nc2ccc(C(=O)NC3CCN(C)CC3)c(F)c2)nc1Nc1ccc(Cl)c(NS(=O)(=O)C(C)(C)C)c1`, the IC50 at BRD4-1 is 9.55 nM; against BRDT-1 it was 22.5 nM; in the series with UKE-1, 225 nM; in the series on MV4-11 AML cells [1], 38.3 nM.

`Cc1cnc(Nc2ccc(N3CCN(C)CC3)cc2)nc1Nc1cccc(NS(=O)(=O)C(C)(C)C)c1`: the IC50 at BRD4-2 is 23.6 nM; in the series on MM.1S cells (setting [3]), 399 nM; in the series with MV4-11 AML cells [1] it was 56.7 nM.

As for `CC[C@@H]1C(=O)N(C)c2cnc(Nc3ccc(C(=O)NC4CCN(C)CC4)cc3OC)nc2N1C1CCCC1` [BI2536], the “downregulation of c-Myc in MM.1S cells” value in the series on c-Myc was “strong downregulation of c-Myc”.

As to `Cc1cnc(Nc2ccc(N3CCN(C)CC3)cc2)nc1Nc1ccc(Cl)c(NS(=O)(=O)C(C)(C)C)c1` [SG3-014B2.MSA], the Solubility in the series “Solubility in PBS buffer” (in 1 mL PBS buffer (15% HPCD)) was > 14.4 mg/mL; in “Solubility in PBS buffer” (in 1 mL PBS buffer (~9.3% DMSO)) it was 0.416 mg.

`Cc1cnc(Nc2ccc(N3CCN(C)CC3)cc2)nc1Nc1cccc(S(=O)(=O)NC(C)(C)C)c1` [TG101209, reference compound]: at BRD4, the “DSF ΔTm” value is 6.83 ± 0.129 °C and 7.55 ± 0.154 °C. In the series on c-Myc, the “downregulation of c-Myc in MM.1S cells” value is listed as “strong downregulation of c-Myc”.

For `Cc1cnc(Nc2ccc(OCCN3CCCC3)cc2)nc1Nc1cccc(S(=O)(=O)NC(C)(C)C)c1` [TG101348], the “downregulation of c-Myc in MM.1S cells” value in the series with c-Myc was “strong downregulation of c-Myc”. The IC50 in the series on MV4-11 AML cells [2] was 79 nM.

With `Cc1cnc(Nc2ccc(N3CCN(C)CC3)cc2)nc1Nc1ccc(Cl)c(NS(=O)(=O)C(C)(C)C)c1` [drawing 146], in the series on MM.1S cells (read-out: MM.1S IC50), the IC50 was 142 nM.

Regarding `Cc1cnc(Nc2ccc(N3CCN(C)CC3)c(F)c2)nc1Nc1cccc(NS(=O)(=O)C(C)(C)C)c1` [drawing 167], on BRD4, the “DSF ΔTm” value is 11.2 ± 0.15 °C. In the series on MM.1S cells (read-out: MM.1S IC50), the IC50 was 146 nM.

Regarding `Cc1cnc(Nc2ccc(N3CCN(C)CC3)c(F)c2)nc1Nc1ccc(Cl)c(NS(=O)(=O)C(C)(C)C)c1` [drawing 168], on BRD4, the “DSF ΔTm” value worked out at 12.6 ± 0.069 °C. Besides, the IC50 in the series with MM.1S cells (read-out: MM.1S IC50) was 64 nM and 66 nM.

Take `Cc1cnc(Nc2ccc(N3CCN(C)CC3)c(F)c2)nc1Nc1ccc(Cl)c(NS(=O)(=O)C(C)(C)C)c1` [drawing 230]: the “DSF: BRD4 ΔTm” value at BRD4 came out at 12.6 ± 0.06 °C. For the same compound, the IC50 was 3.36 nM against JAK2; 66 nM with MM.1S cells (setting [3]); 320 nM with Saos-2; 294 nM in the series on UKE-1; 53.2 nM in the series with MV4-11 AML cells [1].

For the compound `Cc1cnc(Nc2ccc(N3CCN(C)CC3)c(F)c2)nc1Nc1cccc(NS(=O)(=O)C(C)(C)C)c1` [drawing 231], on BRD4, the “DSF: BRD4 ΔTm” value worked out at 11.2 ± 0.15 °C. Further, the IC50 came out at 146 nM in the series on MM.1S cells (setting [3]), 133 nM with Saos-2, 200 nM in the series with UKE-1 and 26.8 nM in the series with MV4-11 AML cells [1].

In the case of `Cc1cnc(Nc2ccc(N3CCN(C)CC3)cc2)nc1Nc1ccc(Cl)c(NS(=O)(=O)C(C)(C)C)c1` [drawing 232], the IC50 on BRD4-1 is 25 nM; at BRD4-2, 27.3 nM; with MM.1S cells (setting [3]) it was 142 nM.
